The source of these data is US12171744B2, “Pharmaceutical combinations for the treatment of cancer” (Presage Biosciences, Inc., priority 2016, dated 2024).

Assay [1] has as its system Toledo cells. As to the kind of experiment: CIVO microinjection, CC3 expression. More on the design: species or system mice. As to conditions: mouse, in vivo. As to the method: Mice were enrolled into CIVO drug studies when the tumor volume reached approximately 1000 mm^3. Microinjection studies were performed using the CIVO device as previously described (Klinghoffer et al, Science Translational Medicine 2015) The device was configured with 6 injection needles set for a 6 mm injection length and a total volume delivery of 3 μl. A fluorescent tracking marker (FTM) was added to each drug reservoir in vehicle for delivery along with each drug or drug combination. All micro-doses were equivalent to or lower than what would be allowed under FDA guidelines for Exploratory IND (Investigational New Drug) studies and by solubility of drug into vehicle. Total amounts of agents injected are tabulated below in Table 4.

In assay [2] the test system is HCC1187 triple negative breast cancer cells. As to the kind of experiment: Western blot of treated cells. The class given is cell-based. As to the method:
(§1) Cell lines shown in Table 1, adherent or suspension, were treated in 6-well dishes or T10 flasks respectively, seeded at one million per ml density prior to treatment in total volumes of 3-10 ml. All agents used for in vitro cell treatments were formulated in water/DMSO to achieve required concentrations (as stated in respective figure labels/legends) with DMSO concentrations not exceeding 0.01%. Drug sources are indicated in table under ‘CIVO microinjection studies’. Cells were harvested at experimental time points: 2, 6, or 24 hours post treatment as indicated in respective figures, first by washing cells twice in ice-cold PBS in 15 ml falcon tubes, centrifugation at 1000 rpm for 5 mins followed by lysis of the respective cell pellets as described in section below. Note: Drug resistant NUDHL1 Dox 1000 nM and Toledo Dox 1000 nM cell lines were generated at Presage by culturing parental lines in media with stepwise increments in Doxorubicin concentration over several passages. These cells were used to generate xenografts when resistance to 1 uM Dox was achieved.
Protein lysates were prepared by adding ice-cold 1×RIPA Buffer (from 10×, Millipore) with 1×-3× Halt protease and phosphatase inhibitor cocktail (100×, Pierce) to cell pellets, followed by pulse sonication (˜3-5 secs) three times. Lysates were cleared by centrifugation at 14K rpm for 15-20 mins and the supernatant (lysate) was collected for further analysis. To prepare lysates from cryopreserved xenograft tumor tissue, tissue was first homogenized using a hand-held tissue homogenizer (Cole Palmer) in above lysis buffer followed by pulse sonication and centrifugation as described above. Above steps were carried out under ice cold conditions. […] 20-25 micrograms of protein from each sample were subject to SDS-PAGE using BOLT 4-12% Bis-Tris gels (Thermofisher) and transferred to either 0.45 or 0.2 micron pore size membranes (as applicable based on protein molecular size), and either nitrocellulose (NC) or pvdf (Thermofisher) using manufacturer's protocol, blocked for one hour in 5% milk at room temperature, probed with primary antibodies (Table 2) at 4 deg C. overnight and corresponding HRP-conjugated secondary antibodies (Jackson Immunoresearch, 1:10,000-1:20,000 dilutions) for 1 hour at room temperature. Three PBS/0.01% Tween-20 washes (5-10 mins each) were carried out after each antibody incubation. ECL chemiluminescent substrate (Pierce or GE) and autoradiographic film (Thermofisher) was used for detection of protein signals.
1 ug of mRNA from each condition was used to generate cDNA using the High Capacity cDNA Reverse Transcription Kit (Applied Biosystems) and manufacturer's protocol. 100 ng cDNA was used to conduct a PCR assay to amplify XBP1 u or splice forms (Thermofisher PCR Supermix)—94 deg C. for 2 mins, (94 deg C. for 15 secs, 55 deg C. for 30 secs, 72 deg C. for 1 min)×30 cycles, 72 deg C. for 7 mins, hold at 4 deg C.

For assay [3], the system named is OCI Ly10 model of DLBCL. Briefly: Western blot of treated cells. The class given is cell-based. As to conditions: 5 uM voruciclib, 50 nM venetoclax; 24 h. As to the method: as §1, with “These cells were used to generate xenografts when resistance to 1 uM Dox was achieved.” left out
Protein lysates were prepared by adding ice-cold 1×RIPA Buffer (from 10×, Millipore) with 1×-3× Halt protease and phosphatase inhibitor cocktail (100×, Pierce) to cell pellets, followed by pulse sonication (˜3-5 secs) three times. […] Protein samples were quantified using Bradford assay (Biorad) at 1:10 or higher dilutions using appropriate blank controls with 1×RIPA. […]

In assay [4] the test system is DLBCL xenograft tumors (OCILY10). Briefly: MCL1 expression in xenograft tumors after oral dosing. The class given is in vivo, mice. As to conditions: 100 mpk, oral gavage daily for 5 days, 4 h post final dose. Here is the method: Protein lysates were prepared by adding ice-cold 1×RIPA Buffer (from 10×, Millipore) with 1×-3× Halt protease and phosphatase inhibitor cocktail (100×, Pierce) to cell pellets, followed by pulse sonication (˜3-5 secs) three times. Lysates were cleared by centrifugation at 14K rpm for 15-20 mins and the supernatant (lysate) was collected for further analysis. To prepare lysates from cryopreserved xenograft tumor tissue, tissue was first homogenized using a hand-held tissue homogenizer (Cole Palmer) in above lysis buffer followed by pulse sonication and centrifugation as described above. Above steps were carried out under ice cold conditions. Protein samples were quantified using Bradford assay (Biorad) at 1:10 or higher dilutions using appropriate blank controls with 1×RIPA. 20-25 micrograms of protein from each sample were subject to SDS-PAGE using BOLT 4-12% Bis-Tris gels (Thermofisher) and transferred to either 0.45 or 0.2 micron pore size membranes (as applicable based on protein molecular size), and either nitrocellulose (NC) or pvdf (Thermofisher) using manufacturer's protocol, blocked for one hour in 5% milk at room temperature, probed with primary antibodies (Table 2) at 4 deg C. overnight and corresponding HRP-conjugated secondary antibodies (Jackson Immunoresearch, 1:10,000-1:20,000 dilutions) for 1 hour at room temperature. […]

For assay [5], the system named is SUDHL4 model of DLBCL. As to the kind of experiment: Xenograft tumor growth and Western blot of tumors. The class given is in vivo, NOD SCID mice. Here is the method:
Protein lysates were prepared by adding ice-cold 1×RIPA Buffer (from 10×, Millipore) with 1×-3× Halt protease and phosphatase inhibitor cocktail (100×, Pierce) to cell pellets, followed by pulse sonication (˜3-5 secs) three times. Lysates were cleared by centrifugation at 14K rpm for 15-20 mins and the supernatant (lysate) was collected for further analysis. To prepare lysates from cryopreserved xenograft tumor tissue, tissue was first homogenized using a hand-held tissue homogenizer (Cole Palmer) in above lysis buffer followed by pulse sonication and centrifugation as described above. Above steps were carried out under ice cold conditions. Protein samples were quantified using Bradford assay (Biorad) at 1:10 or higher dilutions using appropriate blank controls with 1×RIPA. […]
Immune deficient NOD SCID mice were implanted with the SUDHL4 model of DLBCL. […] Drug effects were assessed via tumor volume measurements twice weekly by a technician blinded to the treatment of each subject in the study. […]

Where [6] appears, read: Western blot, voruciclib and bortezomib in combination.

“Also recorded” adds a separate entry of the source.

`CN1CC[C@@H](c2c(O)cc(O)c3c(=O)cc(-c4ccc(C(F)(F)F)cc4Cl)oc23)[C@@H]1CO` (relative stereo) [voruciclib, (+)-trans-2-(2-Chloro-4-trifluoromethylphenyl)-5,7-dihydroxy-8-(2-hydroxymethyl-1-methylpyrrolidin-3-yl)-chromen-4-one]: the CC3 expression result in assay [1] is “slight effect”. In assay [2] (Western blot, compared to untreated sample), the MCL-1 protein expression result was “reduced”. Moreover, in assay [2] (setting [6]), the “bortezomib-induced increase in MCL-1 expression” value was “decreased; also recorded: diminishes” and the “bortezomib-induced upregulation of XIAP” value was “diminishes”. Also, the XBP1 upregulation result in assay [2] (voruciclib combined with either bortezomib or tunicamycin) is given as “diminished”. For the same molecule, in assay [3], the “apoptosis (cleaved PARP)” value was “neither compound significantly induces apoptosis as a single agent”. For the same molecule, the “MCL1 expression in xenograft tumors” value in assay [4] is given as “suppressed”. Further, the normalized tumor volume entry in assay [5] (Voruciclib 200 mpk, Venetoclax 25 mpk, oral gavage 6 days of the week) was “increase in tumor volume”. Also, the p53 result in assay [5] (Western blot of tumors, Day 26, 4 hours post treatment) is reported as “restores”.
